Assay results from US12129246B1, “Hydroquinazoline derivatives for the treatment of a disease or disorder” (Novartis AG, priority 2023, dated 2024).
Where two headings read alike, the source gives them in different places.

Tests used:
monkey NPR1 = monkey NPR1 (Macaca fascicularis, UniProt A0A7N9DBT9); experiment: Cellular cGMP production assay, monkey NPR1 expressing CHO-K1 cells (CisBio HTRF); format: cell-based; details: for Monkey NPR1 Amax (% of ANP): maximum cGMP production as percentage of the maximum cGMP produced with ANP
Outline: (§1)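 Cells receive IBMX (1 mM) assay buffer plus test compound over twelve threefold dilutions starting at 30 μM, and cGMP accumulates for 30 min at 37 °C. Lysates are then incubated one hour at room temperature with d2-labelled cGMP and cryptate-labelled antibody before time-resolved fluorescence reading.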

human NPR1 = target: T1, human NPR1 (Homo sapiens, UniProt P16066); experiment: Cellular cGMP production assay, human NPR1 expressing CHO-K1 cells (CisBio HTRF); format: cell-based; details: for AC50: cGMP production, 30 min at 37° C., 12-point dose-response from 30 μM; for Human NPR1 Amax (% of ANP): maximum cGMP production as percentage of the maximum cGMP produced with ANP
T1 construct: host or cells: CHO-K1
T1 sequence (P16066 33-1061): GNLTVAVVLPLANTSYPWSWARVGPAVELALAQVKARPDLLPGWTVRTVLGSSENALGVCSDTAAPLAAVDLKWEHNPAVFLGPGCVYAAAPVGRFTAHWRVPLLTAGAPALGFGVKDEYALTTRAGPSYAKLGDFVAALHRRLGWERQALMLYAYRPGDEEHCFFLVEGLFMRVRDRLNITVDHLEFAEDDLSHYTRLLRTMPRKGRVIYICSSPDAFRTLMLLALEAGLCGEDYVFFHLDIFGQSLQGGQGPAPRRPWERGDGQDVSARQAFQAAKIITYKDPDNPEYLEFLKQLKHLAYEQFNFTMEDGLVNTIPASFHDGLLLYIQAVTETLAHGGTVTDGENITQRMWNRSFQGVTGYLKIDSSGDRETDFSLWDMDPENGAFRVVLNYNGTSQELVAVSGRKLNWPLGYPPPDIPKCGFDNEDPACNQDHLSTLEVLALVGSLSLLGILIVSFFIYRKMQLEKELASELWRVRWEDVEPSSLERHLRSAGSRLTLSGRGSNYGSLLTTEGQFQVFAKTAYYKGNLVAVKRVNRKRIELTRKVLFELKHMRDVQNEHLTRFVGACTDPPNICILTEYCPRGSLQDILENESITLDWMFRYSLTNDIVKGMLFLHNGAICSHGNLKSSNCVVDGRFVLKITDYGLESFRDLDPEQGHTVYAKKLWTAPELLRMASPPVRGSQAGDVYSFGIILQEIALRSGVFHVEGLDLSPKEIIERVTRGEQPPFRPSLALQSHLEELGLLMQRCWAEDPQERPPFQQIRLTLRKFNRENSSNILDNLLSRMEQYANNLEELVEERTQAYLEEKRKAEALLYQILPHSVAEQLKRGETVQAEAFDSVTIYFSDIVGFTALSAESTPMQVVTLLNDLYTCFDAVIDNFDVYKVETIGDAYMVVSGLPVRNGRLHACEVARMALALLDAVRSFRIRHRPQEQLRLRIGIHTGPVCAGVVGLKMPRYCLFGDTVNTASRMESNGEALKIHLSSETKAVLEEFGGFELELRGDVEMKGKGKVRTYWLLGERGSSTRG
Outline: as §1

[1] = cGMP production, monkey NPR1 CHO-K1 cells, 30 min at 37° C., 12-point dose-response from 30 μM, read-out: Monkey NPR1 AC50

monkey NPR1, sequence (A0A7N9DBT9 entry or part of it): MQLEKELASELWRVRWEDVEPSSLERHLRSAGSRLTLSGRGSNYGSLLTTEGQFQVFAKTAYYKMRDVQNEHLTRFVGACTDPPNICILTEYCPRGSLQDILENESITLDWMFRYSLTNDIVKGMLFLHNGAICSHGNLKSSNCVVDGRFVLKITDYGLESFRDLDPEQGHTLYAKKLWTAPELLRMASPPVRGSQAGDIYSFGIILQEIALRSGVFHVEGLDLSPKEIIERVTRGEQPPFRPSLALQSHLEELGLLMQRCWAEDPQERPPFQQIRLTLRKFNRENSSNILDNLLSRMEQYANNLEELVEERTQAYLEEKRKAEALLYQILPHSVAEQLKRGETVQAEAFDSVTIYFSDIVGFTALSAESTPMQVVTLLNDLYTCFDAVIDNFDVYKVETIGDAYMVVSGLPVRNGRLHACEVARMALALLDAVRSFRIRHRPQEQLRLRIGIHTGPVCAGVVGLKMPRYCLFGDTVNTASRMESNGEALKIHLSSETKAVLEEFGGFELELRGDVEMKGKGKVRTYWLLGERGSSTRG

SMILES | AC50 (monkey NPR1; [1]) [nM] | Monkey NPR1 Amax (% of ANP) (monkey NPR1; monkey NPR1 CHO-K1 cells) | AC50 (human NPR1) [nM] | Human NPR1 Amax (% of ANP) (human NPR1) | AC50 (monkey NPR1) [nM]
CC[C@H]([C@H]1CC[C@H](C(=O)O)CC1)N(C)c1nc2c(c(N[C@@H](CN3CCC[C@H](C)C3)c3cnn(C)c3)n1)CN(c1cccc(Cl)c1)CC2 [Compound 170, (1R,4r)-4-((R)-1-((6-(3-chlorophenyl)-4-(((R)-1-(1-methyl-1H-pyrazol-4-yl)-2-((S)-3-methylpiperidin-1-yl)ethyl)amino)-5,6,7,8-tetrahydropyrido[4,3-d]pyrimidin-2-yl)(methyl)amino)propyl)cyclohexane-1-carboxylic acid] | 790 | 124.109 % of ANP | 2740 | 97.591 % of ANP | –
CC[C@H]([C@H]1CC[C@H](C(=O)O)CC1)N(C)c1nc2c(c(N[C@@H](CN3CCC[C@H](C)C3)c3cnn(C)c3)n1)C[C@H](c1cccc(F)c1)CC2 [Compound 23, (1R,4r)-4-((R)-1-(((R)-6-(3-fluorophenyl)-4-(((R)-1-(1-methyl-1H-pyrazol-4-yl)-2-((S)-3-methylpiperidin-1-yl)ethyl)amino)-5,6,7,8-tetrahydroquinazolin-2-yl)(methyl)amino)propyl)cyclohexane-1-carboxylic acid] | – | 132.182 % of ANP | 115 | 120.018 % of ANP | 72
CC[C@H](N(C)c1nc2c(c(N[C@@H](CN3CCC[C@H](CF)C3)c3cnn(C)c3)n1)C[C@](C)(c1ccccc1)CC2)C12CC(C(=O)O)(C1)C2 [Compound 43, 3-((S)-1-(((R)-4-(((R)-2-((S)-3-(fluoromethyl)piperidin-1-yl)-1-(1-methyl-1H-pyrazol-4-yl)ethyl)amino)-6-methyl-6-phenyl-5,6,7,8-tetrahydroquinazolin-2-yl)(methyl)amino)propyl)bicyclo[1.1.1]pentane-1-carboxylic acid] | 158 | 104.036 % of ANP | 170 | 101.178 % of ANP | –
CC[C@@H]1CCCCN1C[C@H](Nc1nc(N[C@H](CC)[C@H]2CC[C@H](C(=O)O)CC2)nc2c1C[C@H](c1ccccc1)CC2)c1cnn(C)c1 [Compound 96, (1R,4r)-4-((R)-1-(((R)-4-(((R)-2-((R)-2-ethylpiperidin-1-yl)-1-(1-methyl-1H-pyrazol-4-yl)ethyl)amino)-6-phenyl-5,6,7,8-tetrahydroquinazolin-2-yl)amino)propyl)cyclohexane-1-carboxylic acid] | 106 | 101.912 % of ANP | 336 | 103.654 % of ANP | –
CC[C@@H](Nc1nc2c(c(N[C@@H](CN3CCCC(F)(F)CC3)c3cnn(CC)c3)n1)C[C@H](c1ccccc1)CC2)[C@H]1CC[C@H](C(=O)O)CC1 [Compound 137, (1R,4r)-4-((R)-1-(((R)-4-(((R)-2-(4,4-difluoroazepan-1-yl)-1-(1-ethyl-1H-pyrazol-4-yl)ethyl)amino)-6-phenyl-5,6,7,8-tetrahydroquinazolin-2-yl)amino)propyl)cyclohexane-1-carboxylic acid] | 379 | 99.351 % of ANP | 840 | 95.603 % of ANP | –
CC[C@@H](N(C)c1nc2c(c(N[C@@H](CN3C4CCCC3CCC4)c3cnn(C)c3)n1)C[C@H](c1ccccc1F)CC2)C12CC(C(=O)O)(C1)C2 [Compound 41, 3-((R)-1-(((R)-4-(((R)-2-(9-azabicyclo[3.3.1]nonan-9-yl)-1-(1-methyl-1H-pyrazol-4-yl)ethyl)amino)-6-(2-fluorophenyl)-5,6,7,8-tetrahydroquinazolin-2-yl)(methyl)amino)propyl)bicyclo[1.1.1]pentane-1-carboxylic acid] | – | 92.494 % of ANP | 168 | 96.843 % of ANP | 144
CC[C@@H](Nc1nc2c(c(N[C@@H](CN3C4CCCC3CC(O)C4)c3cnn(CC)c3)n1)C[C@H](c1cccc(F)c1)CC2)[C@H]1CC[C@H](C(=O)O)CC1 (stereo partly drawn) [Compound 117, (1R,4r)-4-((1R)-1-(((6R)-4-(((1R)-1-(1-ethyl-1H-pyrazol-4-yl)-2-((1R,5S)-3-hydroxy-9-azabicyclo[3.3.1]nonan-9-yl)ethyl)amino)-6-(3-fluorophenyl)-5,6,7,8-tetrahydroquinazolin-2-yl)amino)propyl)cyclohexane-1-carboxylic acid] | – | 109.499 % of ANP | 524 | 100.635 % of ANP | 500
CC[C@@H](Nc1nc2c(c(N[C@@H](CN3C4CCCC3CC4)c3scnc3C)n1)C[C@H](c1cccc(F)c1)CC2)[C@H]1CC[C@H](C(=O)O)CC1 [Compound 26, (1R,4r)-4-((1R)-1-(((6R)-4-(((1S)-2-(8-azabicyclo[3.2.1]octan-8-yl)-1-(4-methylthiazol-5-yl)ethyl)amino)-6-(3-fluorophenyl)-5,6,7,8-tetrahydroquinazolin-2-yl)amino)propyl)cyclohexane-1-carboxylic acid] | – | 102.667 % of ANP | 131 | 115.149 % of ANP | 91
CC[C@@H](N(C)c1nc2c(c(N[C@@H](CN3CCC[C@H](C)C3)c3cnn(C)c3)n1)C[C@H](c1ccccc1)CC2)C12CC(C(=O)O)(C1)C2 [Compound 44, 3-((R)-1-(methyl((R)-4-(((R)-1-(1-methyl-1H-pyrazol-4-yl)-2-((S)-3-methylpiperidin-1-yl)ethyl)amino)-6-phenyl-5,6,7,8-tetrahydroquinazolin-2-yl)amino)propyl)bicyclo[1.1.1]pentane-1-carboxylic acid] | 102 | 107.199 % of ANP | 173 | 99.256 % of ANP | –
CC[C@H]([C@H]1CC[C@H](C(=O)O)CC1)N(C)c1nc2c(c(N[C@@H](CN3CCC[C@H](COC)C3)c3cnn(C)c3)n1)C[C@H](c1ccccc1)CC2 [Compound 83, (1R,4r)-4-((R)-1-(((R)-4-(((R)-2-((S)-3-(methoxymethyl)piperidin-1-yl)-1-(1-methyl-1H-pyrazol-4-yl)ethyl)amino)-6-phenyl-5,6,7,8-tetrahydroquinazolin-2-yl)(methyl)amino)propyl)cyclohexane-1-carboxylic acid] | 173 | 98.205 % of ANP | 282 | 98.117 % of ANP | –
CC[C@H]([C@H]1CC[C@H](C(=O)O)CC1)N(C)c1nc2c(c(N[C@@H](CN3C[C@H]4C[C@@H](C3)C4O)c3cnn(C)c3)n1)C[C@H](c1ccccc1)CC2 (stereo partly drawn) [Compound 138, (1R,4r)-4-((1R)-1-(((6R)-4-(((1R)-2-((1R,5S)-6-hydroxy-3-azabicyclo[3.1.1]heptan-3-yl)-1-(1-methyl-1H-pyrazol-4-yl)ethyl)amino)-6-phenyl-5,6,7,8-tetrahydroquinazolin-2-yl)(methyl)amino)propyl)cyclohexane-1-carboxylic acid] | – | 101.929 % of ANP | 852 | 105.993 % of ANP | 734
CC[C@@H](Nc1nc2c(c(N[C@@H](CN3C4CC5CC(C4)CC3C5)c3cnn(CC)c3)n1)C[C@H](c1ccccc1)CC2)[C@H]1CC[C@H](C(=O)O)CC1 [Compound 38, (1R,4r)-4-((R)-1-(((R)-4-(((R)-2-((1R,3R,5R,7R)-2-azaadamantan-2-yl)-1-(1-ethyl-1H-pyrazol-4-yl)ethyl)amino)-6-phenyl-5,6,7,8-tetrahydroquinazolin-2-yl)amino)propyl)cyclohexane-1-carboxylic acid] | 83 | 101.007 % of ANP | 161 | 101.675 % of ANP | –
